Target: T1, γ-secretase (Homo sapiens, UniProt P49768)
T1 construct: Human SH-SY5Y neuroblastoma cells overexpressing the direct β-secretase substrate SPA4CT; endogenous in cells; host or cells: human SH-SY5Y neuroblastoma cells (stably overexpressing the substrate SPA4CT, induced with sodium butyrate)
Test: Cell-Based γ-Secretase Assay (inhibition of Aβ(1-42) production, Meso Scale detection)
Conditions: Human SH-SY5Y neuroblastoma cells overexpressing SPA4CT; overnight incubation; Aβ(42) in media
Protocol: Cell-Based γ-Secretase Assay
Human SH-SY5Y neuroblastoma cells overexpressing the direct β-secretase substrate SPA4CT were induced with sodium butyrate (10 mM) for 4 hours prior to plating. Cells were plated at 35,000 cells/well/100 μl in 96-well plates in phenol red-free MEM/10% FBS, 50 mM HEPES, 1% Glutamine and incubated for 2 hrs at 37° C., 5% CO2.
Compounds for testing were diluted into Me2SO to give a ten point dose-response curve. Typically 10 μl of these diluted compounds in Me2SO were further diluted into 182 μl dilution buffer (phenol red-free MEM/10% FBS, 50 mM HEPES, 1% Glutamine) and 10 μl of each dilution was added to the cells in 96-well plates (yielding a final Me2SO concentration of 0.5%). Appropriate vehicle and inhibitor controls were used to determine the window of the assay.
After incubation overnight at 37° C., 5% CO2, 25 μl and 50 μl media were transferred into a standard Meso avidin-coated 96-well plate for detection of Aβ(40) and Aβ(42) peptides, respectively. 25 μl Meso Assay buffer (PBS, 2% BSA, 0.2% Tween-20) was added to the Aβ(40) wells followed by the addition of 25 μl of the respective antibody premixes to the wells:
Aβ(40) premix: 1 μg/ml ruthenylated G2-10 antibody, 4 μg/ml biotinylated 4G8 antibody diluted in Origen buffer
Aβ(42) premix: 1 μg/ml ruthenylated G2-11 antibody, 4 μg/ml biotinylated 4G8 antibody diluted in Origen buffer
(Biotinylated 4G8 antibody supplied by Signet Pathology Ltd; G2-10 and G2-11 antibodies supplied by Chemicon)
After overnight incubation of the assay plates on a shaker at 4° C., the Meso Scale Sector 6000 Imager was calibrated according to the manufacturer's instructions. After washing the plates 3 times with 150 μl of PBS per well, 150 μl Meso Scale Discovery read buffer was added to each well and the plates were read on the Sector 6000 Imager according to the manufacturer's instructions.
LD50 and IC50 values for inhibition of Aβ(40) and Aβ(42) were calculated by nonlinear regression fit analysis using the appropriate software (eg. Excel fit). The total signal and the background were defined by the corresponding Me2SO and inhibitor controls.

Row | IC50 [µM] | Structure (SMILES)
1 | 0.5 to 1.5 | Cc1ccc(C(C)(C)C)cc1Nc1ccnc(N2CCC(Cc3ccncc3)CC2)n1 [Example 4]
2 | 1.5 to 3 | COc1cnc(N2CCC(Cc3ccncc3)CC2)nc1Nc1cc(N(C)C)ccc1C [Example 6]
3 | 1.5 to 3 | Cc1cc(C)c(N(C)C)cc1Nc1ccnc(N2CCC(Cc3ccncc3)CC2)n1 [Example 10]
4 | 0.5 to 1.5 | CCOc1cc(C)c(Nc2nc(N3CCC(Cc4ccncc4)CC3)ncc2Cl)cc1C(C)C [Example 11]
5 | 0.5 to 1.5 | Cc1ccc(OC(C)C)cc1Nc1ccnc(N2CCC(Cc3ccncc3)CC2)n1 [Example 12]
6 | 0.5 to 1.5 | COC(=O)c1cc(Nc2cc(C(C)(C)C)ccc2C)nc(N2CCC(Cc3ccncc3)CC2)n1 [Example 18]
7 | 1.5 to 3 | Cc1ccc(C(C)(C)C)cc1Nc1nc(N2CCC(Cc3ccncc3)CC2)ncc1F [Example 22]

Source: patent US8685972B2, “Pyrimidine derivatives for treatment of alzheimer's disease” (Merck Sharp & Dohme Corp., priority 2008, dated 2014)
